Source: patent US12274785B2, “Sustained-release pharmaceutical compositions comprising an immunomodulating agent and uses thereof” (TAIWAN LIPOSOME CO., LTD., priority 2018, dated 2025)
Structures can show the parent of a compound that is named as a salt. Each block holds one molecule with its values, some of them ahead of it.

Key:
[1] = Particle size distribution by dynamic light scattering; type: physicochemical
Protocol: (§1) The encapsulation efficiency was calculated by the drug to lipid molar ratio (D/L) of the fingolimod hydrochloride encapsulated liposomes compared to the nominal D/L of reaction mixture, which was calculated by dividing the concentration of fingolimod hydrochloride by the lipid concentration of empty liposome. The particle size distribution was measured by a dynamic light scattering instrument (Zetasizer Nano-ZS90, Malvern).
as §1, with “ozanimod” for “fingolimod hydrochloride”

[2] = Drug loading of liposomes: drug to lipid molar ratio and encapsulation efficiency (UV/Vis); type: physicochemical; settings: fingolimod; HSPC/cholesterol/DPPG (59.5/39.6/0.9); trapping agent 2: 300 mM ammonium sulfate
[3] = Pharmacokinetics study of liposomal fingolimod in rats; type: in vivo, Sprague-Dawley rats; settings: IV 5 mg/Kg
Protocol: An in vivo PK evaluation of the liposomal fingolimod formulation was performed using 7- to 8-week-old female Sprague-Dawley rats. The rats were housed in a holding room which operated on a 12-hr light/12-hr dark circadian cycle with free access to water and food.
The rats were divided into three groups (n=4 in each group), one group received intravenous (IV) injection of 5 mg/Kg of free fingolimod hydrochloride, prepared by dissolving the fingolimod hydrochloride in a 9.4% sucrose solution containing 5% dimethyl sulfoxide with a final concentration of 2.00 mg/mL. The second group received intravenous (IV) injection of 5 mg/Kg of liposomal fingolimod formulation prepared according to Example 1. The third group received subcutaneous (SC) injection of 5 mg/Kg of liposomal fingolimod formulation prepared according to Example 1. Blood samples were collected at 5, 15 min, 1, 2, 4, 8, 24, 48, 72, and 96 hours post-injection. Plasma samples were obtained by centrifugation, kept frozen at -80° C. and analyzed using a noncompartmental analysis model in PKSolver (Comput. Methods Programs Biomed. 2010; 99(3):306-314).

[4] = Drug loading of liposomes: drug to lipid molar ratio and encapsulation efficiency (UV/Vis); type: physicochemical
Protocol: (§2) Empty liposomes were prepared by a lipid film hydration-extrusion method. HSPC, cholesterol, and DSPE-PEG2000 (mole percent 59.5/39.6/0.9) were dissolved in chloroform and a thin lipid film was formed by removing the organic solvent under vacuum in a rotary evaporator. The dry lipid film was hydrated in 300 mM ammonium sulfate at 60° C. for 30 min and the empty liposomes were formed with ammonium sulfate encapsulated in the aqueous core. After six freeze-thaw cycles between liquid nitrogen and water at 60° C., the empty liposomes were subsequently extruded ten times through polycarbonate filter membranes with a pore size of 0.2 μm. Unencapsulated ammonium sulfate was removed by dialysis against a 9.4% sucrose solution.
(§3) A reaction mixture containing 7.8 mg/mL of fingolimod hydrochloride (MedChem Express), 20.7 mM of lipids of empty liposomes and 50 mM histidine buffer (pH 7) was incubated at 60° C. for 15 min. The unencapsulated fingolimod hydrochloride was separated by a Sephadex™ G-50 Fine gel (GE Healthcare) or dialysis bag (Spectrum Labs) against a 9.4% sucrose solution to obtain the liposomal fingolimod formulation. The concentrations of the encapsulated fingolimod hydrochloride and the lipid of the liposomal fingolimod formulation were measured using an ultraviolet/visible (UV/Vis) spectrophotometer to calculate the drug to lipid molar ratio (D/L) of the liposomal fingolimod formulation.
as §1
as §2, with “DPPG” for “DSPE-PEG2000”
as §3, with “7.2” for “7.8”, “ozanimod (DC Chemicals), 20.6” for “fingolimod hydrochloride (MedChem Express), 20.7”, “6.5)” for “7)”, “ozanimod” for “fingolimod hydrochloride”, “ozanimod” for “fingolimod”
as §1, with “ozanimod” for “fingolimod hydrochloride”
The liposome formulations were prepared according to Example 1, with the following trapping agents: (1) 75 mM of triethylammonium sucrose octasulfate, (2) 300 mM of ammonium sulfate, (3) 200 mM ammonium phosphate and (4) 7.0 mM of dextran sulfate.

[5] = In vitro release through dialysis bag with fetal bovine serum; type: physicochemical; settings: fetal bovine serum mixture, PBS pH 7.4 with 0.06N HCl, 37 °C
Protocol: To setup an in vitro release system, 0.5 mL of liposomal fingolimod formulation prepared according to Example 1 and 0.5 mL of free fingolimod hydrochloride were each mixed with 0.5 mL of fetal bovine serum. The free fingolimod/serum mixture and liposomal fingolimod/serum mixture were placed in separate dialysis bags (Spectra/Pro®6 dialysis membrane, MWCO 50 kDa, Spectrum Labs) and both ends of the dialysis bags were sealed. Each dialysis bag was immersed in 15 mL PBS at pH 7.4, containing 0.06N HCl, in a 50-mL centrifuge tube and incubated at 37±1° C. water bath. At designated time points after incubation (1, 2, 4, 8 and 24 hours), 0.5 mL aliquot from the 15-mL PBS was sampled and 0.5 mL of fresh PBS was added to replenish the sampling aliquot each time. Drug concentrations of the sampling aliquots at each time point were analyzed using HPLC to create the in vitro release profile of the tested formulations.

[6] = DMPC/cholesterol/DSPE-PEG2000 (59.5/40/0.5), trapping agent 2: 300 mM ammonium sulfate
[7] = DPPC/cholesterol/DSPE-PEG2000 (55.9/38.7/5.4), trapping agent 3: 200 mM ammonium phosphate
[8] = HSPC/cholesterol/DSPE-PEG2000 (59.5/39.6/0.9), trapping agent 1: 75 mM triethylammonium sucrose octasulfate
[9] = HSPC/cholesterol/DSPE-PEG2000 (59.5/39.6/0.9), trapping agent 2: 300 mM ammonium sulfate
[10] = DSPC/cholesterol/DSPE-PEG2000 (59.5/39.6/0.9), trapping agent 4: 7.0 mM dextran sulfate
[11] = HSPC/cholesterol (60/40), trapping agent 1: 75 mM triethylammonium sucrose octasulfate
[12] = ozanimod, HSPC/cholesterol/DPPG (59.5/39.6/0.9), trapping agent 2: 300 mM ammonium sulfate

Average Particle Size [1, 6]: 154.5 nm
Average Particle Size [1, 7]: 143.1 nm
Average Particle Size [1, 8]: 288.0 nm
Average Particle Size [1, 9]: 162.1 nm
Average Particle Size ([1]; fingolimod, HSPC/cholesterol/DPPG (59.5/39.6/0.9), trapping agent 2: 300 mM ammonium sulfate): 191.4 nm
Encapsulation Efficiency [2]: 100%
Purified D/L [2]: 1.01 mole/mole
time after which eliminated from the circulation [3]: about 70 hours
AUC0-t/AUC0-inf ratio ([3]; 96 hours post-injection): approximately 100%
Encapsulation Efficiency [4, 6]: 100%
Purified D/L [4, 6]: 1.13 mole/mole
Encapsulation Efficiency [4, 7]: 99%
Purified D/L [4, 7]: 0.88 mole/mole
Encapsulation Efficiency [4, 8]: 100%
Purified D/L [4, 8]: 1.28 mole/mole
Encapsulation Efficiency [4, 9]: 100%
Purified D/L [4, 9]: 1.11 mole/mole
fingolimod released through the dialysis bag within 4 hours ([5]; 4 hours): ~80%
release through the dialysis bag over 24 hours ([5]; 24 hours): > 80%
Compound: CCCCCCCCc1ccc(CCC(N)(CO)CO)cc1 [Fingolimod HCl, fingolimod hydrochloride]

Average Particle Size [1, 10]: 364.2 nm
Average Particle Size [1, 11]: 215.2 nm
Average Particle Size [1, 12]: 186.7 nm
Encapsulation Efficiency [4, 10]: 79%
Purified D/L [4, 10]: 0.35 mole/mole
Encapsulation Efficiency [4, 11]: 100%
Purified D/L [4, 11]: 0.49 mole/mole
Encapsulation Efficiency [4, 12]: 100%
Purified D/L [4, 12]: 0.87 mole/mole
Compound: CC(C)Oc1ccc(-c2nc(-c3cccc4c3CC[C@@H]4NCCO)no2)cc1C#N [Ozanimod, ozanimod]
